Results on 24 compounds are retold here after US9725449B2, “Tricyclic compounds as anticancer agents” (BRISTOL-MYERS SQUIBB COMPANY, priority 2015, dated 2017).

In the test the target is BRD4 (Homo sapiens, UniProt O60885). The experiment in a line: Time resolved fluorescence resonance energy transfer (TR-FRET) binding assay, bromodomain BRD4. The note with it: one of the FRET assays described; read-out: FRET BRD4 IC50.
As for `Cc1nnn(C)c1-c1cnc2c3ccc(-c4cnn(C5CC5)c4)nc3n([C@H](c3ccccc3)C3CCOCC3)c2c1` [Example 150, 11-(1-Cyclopropyl-1H-pyrazol-4-yl)-5-(dimethyl-1H-1,2,3-triazol-5-yl)-8-[(S)-oxan-4-yl(phenyl)methyl]-3,8,10-triazatricyclo[7.4.0.0^2,^7]trideca-1(13),2(7),3,5,9,11-hexaene], the IC50 (as a rule, the point on the concentration scale where inhibition reaches its midpoint) is < 1 nM. As for `[2H]C([2H])([2H])c1nnn(C)c1-c1cnc2c3ccc(C(C)(C)O)nc3n([C@H](c3ccccc3)C3CCOCC3)c2c1` [Example 175, 2-{5-[4-(^2H3)Methyl-1-methyl-1H-1,2,3-triazol-5-yl]-8-[(S)-oxan-4-yl(phenyl)methyl]-3,8,10-triazatricyclo[7.4.0.0^2,^7]trideca-1(9),2(7),3,5,10,12-hexaen-11-yl}propan-2-ol], the IC50 was < 10 nM. `Cc1nnn(C)c1-c1cnc2c3c(O)ncc(S(C)(=O)=O)c3n([C@H](c3ccccc3)C3CCOCC3)c2c1` [Example 93, 5-(Dimethyl-1H-1,2,3-triazol-5-yl)-10-methanesulfonyl-8-[(S)-oxan-4-yl(phenyl)methyl]-3,8,12-triazatricyclo[7.4.0.0^2,^7]trideca-1(13),2(7),3,5,9,11-hexaen-13-ol]: the concentration for half-maximal inhibition (IC50) is < 10 nM. With `CCS(=O)(=O)Nc1ncc(S(C)(=O)=O)c2c1c1ncc(-c3c(C)noc3C)cc1n2[C@H](c1ccccc1)C1CCOCC1` [Example 99, N-[5-(Dimethyl-1,2-oxazol-4-yl)-10-methanesulfonyl-8-[(S)-oxan-4-yl(phenyl)methyl]-3,8,12-triazatricyclo[7.4.0.0^2,^7]trideca-1(13),2(7),3,5,9,11-hexaen-13-yl]ethane-1-sulfonamide], the 50% inhibitory concentration (IC50) was < 1 nM. For `[2H]C([2H])([2H])c1onc(C)c1-c1cnc2c3c(OC)ncc(S(=O)(=O)C([2H])([2H])[2H])c3n(C(c3ncccc3F)C3CCOCC3)c2c1` (stereo not drawn) [Example 67, 8-[(3-Fluoropyridin-2-yl)(oxan-4-yl)methyl]-10-(^2H3)methanesulfonyl-13-methoxy-5-[5-(^2H3)methyl-3-methyl-1,2-oxazol-4-yl]-3,8,12-triazatricyclo[7.4.0.0^2,^7]trideca-1(13),2(7),3,5,9,11-hexaene] the value was < 1500 nM; for `Cc1nnn(C)c1-c1cnc2c3cc(C(C)(C)O)cnc3n([C@H](c3ccccc3)C3CCOCC3)c2c1` [Example 350, 2-[5-(Dimethyl-1H-1,2,3-triazol-5-yl)-8-[(S)-oxan-4-yl(phenyl)methyl]-3,8,10-triazatricyclo[7.4.0.0^2,^7]trideca-1(13),2(7),3,5,9,11-hexaen-12-yl]propan-2-ol], < 10 nM; for `Cc1nnn(C)c1-c1cnc2c3ccc(NCCP(=O)(O)O)nc3n([C@H](c3ccccc3)C3CCOCC3)c2c1` [Example 219, (2-{[5-(Dimethyl-1H-1,2,3-triazol-5-yl)-8-[(S)-oxan-4-yl(phenyl)methyl]-3,8,10-triazatricyclo[7.4.0.0^2,^7]trideca-1(9),2(7),3,5,10,12-hexaen-11-yl]amino}ethyl)phosphonic acid], < 1 nM. With `[2H]C([2H])([2H])c1nnn(C)c1-c1cc2c(cn1)c1ncc(C(C)(C)O)cc1n2C(c1ncccc1F)C1CCOCC1` (single isomer, unassigned) [Example 366], the 50% inhibitory concentration (IC50) is < 10 nM. For `COc1ncc(C(C)(C)O)c2c1c1ncc(-c3c(C)nnn3C)cc1n2[C@H](c1ccccc1)C1CCOCC1` [Example 142, 2-[5-(Dimethyl-1H-1,2,3-triazol-5-yl)-13-methoxy-8-[(S)-oxan-4-yl(phenyl)methyl]-3,8,12-triazatricyclo[7.4.0.0^2,^7]trideca-1(9),2,4,6,10,12-hexaen-10-yl]propan-2-ol] the value was < 10 nM; for `Cc1nnn(C)c1-c1ccc2c3ncc(C(C)(C)O)cc3n([C@H](c3ccccc3)C3CCOCC3)c2n1` [Example 380], < 10 nM.

Consider `COc1nnn(C)c1-c1cnc2c3ccc(Cl)nc3n([C@H](c3ccccc3)C3CCOCC3)c2c1` [Example 167, 11-Chloro-5-(4-methoxy-1-methyl-1H-1,2,3-triazol-5-yl)-8-[(S)-oxan-4-yl(phenyl)methyl]-3,8,10-triazatricyclo[7.4.0.0^2,^7]trideca-1(9),2(7),3,5,10,12-hexaene], for which the IC50 is < 1500 nM. As to “2-{13-Methoxy-5-[4-(^2H3)methyl-1-methyl-1H-1,2,3-triazol-5-yl]-8-[(S)-oxan-4-yl(phenyl)methyl]-3,8,12-triazatricyclo[7.4.0.0^2,^7]trideca-1(13),2(7),3,5,9,11-hexaen-11-yl}propan-2-ol [Example 344]”, the IC50 was < 10 nM.

Regarding `[2H]C([2H])([2H])c1nnn(C)c1-c1cnc2c3c(OC(C)C)ncc(S(C)(=O)=O)c3n(C(c3ncccc3F)C3CCOCC3)c2c1` (stereo not drawn) [Example 70, 8-[(3-Fluoropyridin-2-yl)(oxan-4-yl)methyl]-10-methanesulfonyl-5-[4-(^2H3)methyl-1-methyl-1H-1,2,3-triazol-5-yl]-13-(propan-2-yloxy)-3,8,12-triazatricyclo[7.4.0.0^2,^7]trideca-1(13),2(7),3,5,9,11-hexaene], the half-maximal inhibitory concentration (IC50) is < 1 nM. With `[2H]C([2H])([2H])c1nnn(C)c1-c1cnc2c3c(O)ncc(S(C)(=O)=O)c3n([C@H](c3ccccc3)C3CCC(F)(F)CC3)c2c1` [Example 92, 8-[(S)-(4,4-Difluorocyclohexyl)(phenyl)methyl]-10-methanesulfonyl-5-[4-(^2H3)methyl-1-methyl-1H-1,2,3-triazol-5-yl]-3,8,12-triazatricyclo[7.4.0.0^2,^7]trideca-1(13),2(7),3,5,9,11-hexaen-13-ol], the half-maximal inhibitory concentration (IC50) was < 10 nM. On to `[2H]C([2H])([2H])c1nnn(C)c1-c1cnc2c3c(OC4COC4)ncc(S(C)(=O)=O)c3n([C@H](c3ccccc3)C3CCOCC3)c2c1` [Example 111, 10-Methanesulfonyl-5-[4-(^2H3)methyl-1-methyl-1H-1,2,3-triazol-5-yl]-8-[(S)-oxan-4-yl(phenyl)methyl]-13-(oxetan-3-yloxy)-3,8,12-triazatricyclo[7.4.0.0^2,^7]trideca-1(13),2(7),3,5,9,11-hexaene], for which the IC50 is < 10 nM. Regarding `CNCCN(C)c1ccc2c3ncc(-c4c(OC)nnn4C)cc3n([C@H](c3ccccc3F)C3CCOCC3)c2n1` [Example 255, 8-[(S)-(2-Fluorophenyl)(oxan-4-yl)methyl]-5-(4-methoxy-1-methyl-1H-1,2,3-triazol-5-yl)-N-methyl-N-[2-(methylamino)ethyl]-3,8,10-triazatricyclo[7.4.0.0^2,^7]trideca-1(13),2(7),3,5,9,11-hexaen-11-amine], the half-inhibitory concentration (IC50) is < 10 nM. For `[2H]C([2H])([2H])c1nnn(C)c1-c1cnc2c3c(OCC)ncc(S(C)(=O)=O)c3n([C@H](c3ccccc3)C3CCOCC3)c2c1` [Example 56, 13-Ethoxy-10-methanesulfonyl-5-[4-(^2H3)methyl-1-methyl-1H-1,2,3-triazol-5-yl]-8-[(S)-oxan-4-yl(phenyl)methyl]-3,8,12-triazatricyclo[7.4.0.0^2,^7]trideca-1(13),2(7),3,5,9,11-hexaene], the IC50 is < 1 nM.

For the compound `Cc1nnn(C)c1-c1cnc2c3c(OC(C)C)ncc(S(C)(=O)=O)c3n([C@H](c3ccccc3)C3CCOCC3)c2c1` [Example 57, 5-(Dimethyl-1H-1,2,3-triazol-5-yl)-10-methanesulfonyl-8-[(S)-oxan-4-yl(phenyl)methyl]-13-(propan-2-yloxy)-3,8,12-triazatricyclo[7.4.0.0^2,^7]trideca-1(13),2(7),3,5,9,11-hexaene], the half-maximal inhibitory concentration (IC50) is < 1 nM. Consider `[2H]C([2H])([2H])c1nnn(C)c1-c1cnc2c3c(OCC)ncc(S(C)(=O)=O)c3n([C@H](c3ccc(F)cc3)C3CCOCC3)c2c1` [Example 77, 13-Ethoxy-8-[(S)-(4-fluorophenyl)(oxan-4-yl)methyl]-10-methanesulfonyl-5-[4-(^2H3)methyl-1-methyl-1H-1,2,3-triazol-5-yl]-3,8,12-triazatricyclo[7.4.0.0^2,^7]trideca-1(13),2(7),3,5,9,11-hexaene], for which the IC50 was < 1 nM.

Regarding `[2H]C([2H])([2H])c1nnn(C)c1-c1cnc2c3cnc(C(C)(C)O)cc3n([C@H](c3ccc(F)cc3)C3CCOCC3)c2c1` [Example 159, 2-{8-[(S)-(4-Fluorophenyl)(oxan-4-yl)methyl]-5-[4-(^2H3)methyl-1-methyl-1H-1,2,3-triazol-5-yl]-3,8,12-triazatricyclo[7.4.0.0^2,^7]trideca-1(13),2(7),3,5,9,11-hexaen-11-yl}propan-2-ol], the half-maximal inhibitory concentration (IC50) is < 1500 nM. Turning to `Cc1nnn(C)c1-c1cnc2c3cncc(Cl)c3n([C@H](c3ccccc3)C3CCOCC3)c2c1` [Example 34, 10-Chloro-5-(dimethyl-1H-1,2,3-triazol-5-yl)-8-[(S)-oxan-4-yl(phenyl)methyl]-3,8,12-triazatricyclo[7.4.0.0^2,^7]trideca-1(13),2(7),3,5,9,11-hexaene], the IC50 is < 10 nM. For `Cc1nnn(C)c1-c1cnc2c3cc(Cl)ncc3n([C@H](c3ccccc3F)C3CCOCC3)c2c1` [Example 4, 12-Chloro-5-(dimethyl-1H-1,2,3-triazol-5-yl)-8-[(S)-(2-fluorophenyl)(oxan-4-yl)methyl]-3,8,11-triazatricyclo[7.4.0.0^2,^7]trideca-1(13),2(7),3,5,9,11-hexaene] the value was < 10 nM; for `Cc1nnn(C)c1-c1cnc2c3ccc(N4CCS(=O)(=O)CC(C)C4)nc3n([C@H](c3ccccc3)C3CCOCC3)c2c1` (stereo partly drawn) [Example 211, 4-[5-(Dimethyl-1H-1,2,3-triazol-5-yl)-8-[(S)-oxan-4-yl(phenyl)methyl]-3,8,10-triazatricyclo[7.4.0.0^2,^7]trideca-1(9),2(7),3,5,10,12-hexaen-11-yl]-6-methyl-1λ^6,4-thiazepane-1,1-dione], < 10 nM; for `Cc1nnn(C)c1-c1cnc2c3c(NS(=O)(=O)CC4CC4)ncc(S(C)(=O)=O)c3n([C@H](c3ccccc3)C3CCOCC3)c2c1` [Example 104, 1-Cyclopropyl-N-[5-(dimethyl-1H-1,2,3-triazol-5-yl)-10-methanesulfonyl-8-[(S)-oxan-4-yl(phenyl)methyl]-3,8,12-triazatricyclo[7.4.0.0^2,^7]trideca-1(13),2(7),3,5,9,11-hexaen-13-yl]methanesulfonamide], < 10 nM.
